Test results published in patent US20230357363A1, “PROTEIN DOUBLE-SHELL NANOSTRUCTURES AND THEIR USE” (The Board of Trustees of the Leland Stanford Junior …, priority 2020, published 2023).

Test system: BODIPY-conjugated pKID domain of CREB protein
Assay: Fluorescence polarization assay of MBP-KIX-apoferritin with BODIPY-conjugated pKID
Assay type: binding
Settings: FP assay, protein titrated against BODIPY-pKID, read 30 minutes after mixing
Text: FIGS. 1A-1D. The design of double-shell system. FIG. 1A. The double shell system is shown by cartoon with apoferritin as inner cage, MBP as outer cage, and small cargo proteins in the middle portion. FIG. 1B. Strategy of plasmid construction. The cargo protein KIX C-terminus is fused to the apoferritin N-terminus with the C-terminal 668-672 residues of KIX and N-terminal 1-5 residues of apoferritin truncated for stability. Several mutations (shown as lightning) were also incorporated on the interface between KIX and apoferritin to enhance stability. The MBP tag is fused to the KIX N-terminus. FIG. 1C. Design of mutations that stabilize the KIX domain of CBP on the apoferritin complex. […] Fluorescence polarization assay using the BODIPY-conjugated phosphorylated KID domain of CREB and KIX, MBP-KIX-apoferritin construct 3, or MBP-apoferritin. […]
Fluorescence polarization (FP) using the MBP-KIX-apoferritin and the BODIPY-conjugated phosphorylated pKID domain of CREB was performed as described previously^16. […] Phosphorylation efficiency of pKID, which was assessed using a SDS-gel containing Phos-tag™ Acrylamide (FUJIFILM), was almost 100%. pKID was purified using the phosphoprotein enrichment kit (Takara). […] Molar concentration of KIX, MBP-KIX-apoferritin construct 3, and MBP-apoferritin was calculated as a monomer. FP was measured 30 minutes after mixing using INFINITE M1000 PRO (TECAN). […]

Q: “MKF: 24-mer MBP-KIX-apoferritin fusion protein double-shell nanostructure from construct 3 (T27C, A31C, E169C, C177S, E237C)” was tested. Which “binding affinity of KIX for the BODIPY-conjugated pKID domain of CREB (function of KIX in the 24-mer complex)” value did it give?
A: still maintained its function
